Source: patent US6921840B1 (The Trustees of the University of Pennsylvania, priority 1999, dated 2005)
Values joined by “and” are separate entries in the source; they are usually repeats but may differ in a detail not shown here. Equal entries are not always repeated. Where two headings read alike, the source gives them in different places.

Experiments:
[1] = Biodistribution in rats after i.v. injection of radioactive tracer; assay type: in vivo, rat
Description: Three or four rats per group were used for each biodistribution study. While under ether anesthesia, 0.2 ml of a saline solution containing 10 μCi of radioactive tracer was injected into the femoral vein. The rats were sacrificed at the time indicated by cardiac excision while under ether anesthesia. Organs of interest were removed and weighed, and the radioactivity was counted using a Packard automatic gamma counter (Model 5000). The percent dose per organ was calculated by a comparison of the tissue counts to counts of 1% of the initial dose (100 times diluted aliquots of the injected material) measured at the same time.
Regional brain distribution in rats was measured after an i.v. injection of the radioactive tracer. Samples from different brain regions [cortex (CX), striatum (ST), hippocampus (HP), cerebellum (CB) and hypothalamus (HY)] were dissected, weighed and counted. The percentage dose/g of each sample was calculated by comparing sample counts with the counts of the diluted initial dose described above. The ratio of specific binding (SB) in each region was obtained by dividing the difference of each region from the cerebellum (percentage dose/g) with that of the cerebellum [(region-CB)/CB].

[2] = Partition coefficient octanol/buffer; assay type: physicochemical; conditions: n-octanol and phosphate buffer, pH 7.4
[3] = In vitro stability of radioiodinated ligand; assay type: physicochemical; conditions: in 50% ethanol for up to two months after radioiodination
[4] = Metabolite analysis of brain tissue; assay type: in vivo, rat; conditions: rats, 60 min post-injection
Description: Sixty minutes after an i.v. injection of 200-300 μCi of [^125I]IDAM into two male rats, the areas corresponding to the hypothalamus region were dissected individually. The tissues were then homogenized in 1.5 ml of 50 mM Tris buffer (pH 7.4) and the homogenates were extracted with ethyl acetate (3×1.5 ml) in the presence of the non-radioactive IDAM (100 μg). The extracted ethyl acetate layers were evaporated to near dryness and the purity of [^125I]IDAM in the condensed extracts was analyzed by HPLC (PRP-1 column; solvent: CH3CN/DMGA: 90/10; flow rate: 1 ml/min). Control samples were performed by adding 5-10 μCi of [^125I]IDAM to hypothalamus tissues followed by the same procedures used for the experimental samples to determine the extraction efficiency.

SERT [5] = biological target: T1, SERT (Rattus norvegicus, UniProt P31652)
T1 sequence (P31652 whole entry): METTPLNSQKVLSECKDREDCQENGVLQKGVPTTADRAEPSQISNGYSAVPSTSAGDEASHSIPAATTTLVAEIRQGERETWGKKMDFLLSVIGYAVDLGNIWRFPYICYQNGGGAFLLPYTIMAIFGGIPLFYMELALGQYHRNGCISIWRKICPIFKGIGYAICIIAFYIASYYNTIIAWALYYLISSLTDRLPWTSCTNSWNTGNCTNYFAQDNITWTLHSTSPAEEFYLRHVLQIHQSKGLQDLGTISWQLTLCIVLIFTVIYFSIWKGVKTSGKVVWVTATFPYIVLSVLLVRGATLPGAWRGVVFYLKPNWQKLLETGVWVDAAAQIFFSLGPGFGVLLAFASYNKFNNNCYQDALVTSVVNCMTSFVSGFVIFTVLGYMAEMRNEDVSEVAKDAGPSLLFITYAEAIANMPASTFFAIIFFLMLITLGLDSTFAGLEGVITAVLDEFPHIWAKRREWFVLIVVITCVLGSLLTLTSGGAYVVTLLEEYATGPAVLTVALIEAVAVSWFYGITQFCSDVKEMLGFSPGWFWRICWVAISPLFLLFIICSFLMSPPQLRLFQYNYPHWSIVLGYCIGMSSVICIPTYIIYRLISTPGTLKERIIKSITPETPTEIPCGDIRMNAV
Description: At 60 min post i.v. injection, the animals were sacrificed by cardiac excision while under ether anesthesia. The brains were rapidly removed, placed in embedding medium (Tissue Tek, Miles Laboratory, Elkhart, Ind.) and frozen with powdered dry ice. After reaching equilibrium at −20° C. consecutive 20 μm coronal sections were cut on a cryostat microtome (Hacker Instruments, Fairfield, N.J.) thaw-mounted on microscope slides, and air-dried at room temperature. […] The microscale standards were calibrated with tissue mash standards for the value conversion to nCi/mg protein. The exposed film was developed by a Kodak automatic film processor. […] The brain sections of the pretreated rats were processed following the same procedures described above for the normal untreated rats.

SERT [6] = biological target: T1, SERT; assay: [125I]IDAM saturation binding to rat frontal cortical membrane homogenates; set-up: The frontal cortex of rat brain were dissected and homogenized in 30 volumes of buffer; from tissue; host or cells: rat frontal cortex membrane homogenates (male Sprague-Dawley rats, control and PCA-lesioned)
Description: The homogenates were centrifuged at 20,000 g for 20 min. The resulting pellets were then re-suspended and recentrifuged. The final pellets were suspended in the same buffer and used for in vitro binding assays.
Binding assays were performed in glass tubes (12×75 mm) with a final volume of 0.5 ml.
Various inhibitors were serially diluted with the buffer containing 0.1% BSA to overcome the stickiness and loss due to dilution. […] Incubation was carried out for 60 min at room temperature and then terminated by separation of bound from free radioligand by filtration through glass fiber filters (Schleicher & Schuell No. 25, Keene, N.H.) presoaked with 1% polyethylenimine. The filters were then washed three times with 3 ml of ice-cold […] Tris buffer and counted in a gamma counter (Packard 5000) with 70% efficiency. To study the effect of […], the homogenates were prepared in a sodium-free 50 mM Tris-HCl/5 mM KCl buffer.
Ten rats were divided into two-groups, and they were injected daily with PCA (8 mg/kg, i.p.) or saline for 3 consecutive days, respectively. The animals were sacrificed 5 days after the last injection and the frontal cortical membrane homogenates were prepared.

[7] = PCA-lesioned rats, frontal cortical membranes
[8] = control rats, frontal cortical membranes

Compound: CN(C)Cc1ccccc1Sc1ccc([125I])cc1CO [[^125I]IDAM]
- SB: specific binding = (region-CB)/CB, HIPPOCAMPUS ([1]; 60 min): 1.313
- SB: specific binding = (region-CB)/CB, HYPOTHALAMUS ([1]; 60 min): 1.75
- SB: specific binding = (region-CB)/CB, STRIATUM ([1]; 60 min): 0.673
- % dose/g CEREBELLUM ([1]; 120 min): 0.053 ± 0.005 % dose/g
- % dose/g CORTEX ([1]; 120 min): 0.89 ± 0.018 % dose/g
- % dose/g HIPPOCAMPUS ([1]; 120 min): 0.134 ± 0.011 % dose/g
- % dose/g HYPOTHALAMUS ([1]; 120 min): 0.142 ± 0.027 % dose/g
- % dose/g STRIATUM ([1]; 120 min): 0.105 ± 0.052 % dose/g
- % dose/organ BLOOD ([1]; 120 min): 4.160 ± 0.150 % dose/organ
- % dose/organ BRAIN ([1]; 120 min): 0.17 % dose/organ and 0.168 ± 0.029 % dose/organ
- % dose/organ HEART ([1]; 120 min): 0.114 ± 0.023 % dose/organ
- % dose/organ KIDNEY ([1]; 120 min): 0.832 ± 0.071 % dose/organ
- % dose/organ LIVER ([1]; 120 min): 2.722 ± 0.308 % dose/organ
- % dose/organ LUNG ([1]; 120 min): 0.422 ± 0.055 % dose/organ
- % dose/organ MUSCLE ([1]; 120 min): 4.714 ± 0.977 % dose/organ
- % dose/organ SKIN ([1]; 120 min): 6.716 ± 1.304 % dose/organ
- % dose/organ SPLEEN ([1]; 120 min): 0.066 ± 0.008 % dose/organ
- SB: specific binding = (region-CB)/CB, CORTEX ([1]; 120 min): 0.674
- SB: specific binding = (region-CB)/CB, HIPPOCAMPUS ([1]; 120 min): 1.524
- SB: specific binding = (region-CB)/CB, HYPOTHALAMUS ([1]; 120 min): 1.679
- SB: specific binding = (region-CB)/CB, STRIATUM ([1]; 120 min): 0.967
- % dose/g CEREBELLUM ([1]; 240 min): 0.012 ± 0.000 % dose/g
- % dose/g CORTEX ([1]; 240 min): 0.017 ± 0.003 % dose/g
- % dose/g HIPPOCAMPUS ([1]; 240 min): 0.020 ± 0.003 % dose/g
- % dose/g HYPOTHALAMUS ([1]; 240 min): 0.022 ± 0.011 % dose/g
- % dose/g STRIATUM ([1]; 240 min): 0.018 ± 0.002 % dose/g
- % dose/organ BLOOD ([1]; 240 min): 2.246 ± 0.303 % dose/organ
- % dose/organ BRAIN ([1]; 240 min): 0.033 ± 0.002 % dose/organ
- % dose/organ HEART ([1]; 240 min): 0.048 ± 0.004 % dose/organ
- % dose/organ KIDNEY ([1]; 240 min): 0.488 ± 0.065 % dose/organ
- % dose/organ LIVER ([1]; 240 min): 1.469 ± 0.189 % dose/organ
- % dose/organ LUNG ([1]; 240 min): 0.220 ± 0.018 % dose/organ
- % dose/organ MUSCLE ([1]; 240 min): 2.818 ± 0.208 % dose/organ
- % dose/organ SKIN ([1]; 240 min): 3.851 ± 0.073 % dose/organ
- % dose/organ SPLEEN ([1]; 240 min): 0.024 ± 0.004 % dose/organ
- SB: specific binding = (region-CB)/CB, CORTEX ([1]; 240 min): 0.475
- SB: specific binding = (region-CB)/CB, HIPPOCAMPUS ([1]; 240 min): 0.705
- SB: specific binding = (region-CB)/CB, HYPOTHALAMUS ([1]; 240 min): 0.865
- SB: specific binding = (region-CB)/CB, STRIATUM ([1]; 240 min): 0.508
- partition coefficient (PC) [2]: 473
- logD ([2]; read-out: partition coefficient (PC) (converted)): 2.67
- stability: radiochemical purity determined by HPLC [3]: > 95%
- unmetabolized tracer recovered from hypothalamus region [4]: > 95%
- nonspecific binding (non-paroxetine blockable) (SERT [5]; HP): more than 70%
- percentage of specific binding (paroxetine blockable) (SERT [5]; hippocampal regions and several cortical regions): less than 30%
- percentage of specific binding (paroxetine blockable) (SERT [5]; interperduncular nucleus, median raphe and dorsomedial hypothalamus): more than 95%
- Bmax of [125I]IDAM binding (SERT [6]; [7]): 20±7 fmol/mg protein
- Kd (SERT [6]; [7]): 0.05 ± 0.15 nM
- Kd of [125I]IDAM binding (SERT [6]; [7]): no significant change
- loss of [125I]IDAM binding to rat cortical membranes (SERT [6]; after destruction of serotonergic neurons by PCA): 90%
- nonspecific binding (SERT [6]; at Kd value, rat frontal cortical membranes): < 5%
- Bmax of [125I]IDAM binding (SERT [6]; [8]): 272±30 fmol/mg protein
- Kd (SERT [6]; [8]): 0.25 nM and 0.2 nM
